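Protocol summary: plate cells (96-well), add compound at 5 concentrations, incubate 48 h, interpolate endpoints linearly. Here, GI50 denotes the concentration required for 50% inhibition of growth.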 Activity calls are given as the source filed them. Rule as the data show it: active = GI50 up to about 1.1 µM and inactive = higher.

Among the test systems are OVCAR-8; COLO 205; HT-29; SF-295; NCI-H226; RPMI-8226; SW-620; SNB-19; SR; HOP-92; CAKI-1; IGROV-1; K562; SNB-75; UO-31; CCRF-CEM; SK-OV-3; SF-539; NCI-H522; A549.
Test in all cases: DTP human tumour cell line panel, 48 h

As for `O=c1ccn(COC(COCc2ccccc2)COCc2ccccc2)c(=O)[nH]1`, the GI50 in the assay on OVCAR-8, in the assay with COLO 205, in the assay on HT-29, in the assay on SF-295, in the assay on NCI-H226 and in the assay on RPMI-8226 was > 100 µM (inactive) in each case. Further, the GI50 was > 100 µM (inactive) with SW-620; > 100 µM (inactive) in the assay on SNB-19; 62.8 µM (inactive) in the assay with SR; > 100 µM (inactive) in the assay with HOP-92; > 100 µM (inactive) with CAKI-1; > 100 µM (inactive) in the assay with IGROV-1. Moreover, the GI50 with K562 was > 100 µM (inactive); with SNB-75, > 100 µM (inactive); in the assay with UO-31 it was 51.4 µM (inactive); with CCRF-CEM, > 100 µM (inactive); with SK-OV-3, > 100 µM (inactive).

In the case of `O=C(O)C1CCCCN1c1ccccc1[N+](=O)[O-]` (stereo unspecified), the GI50 in the assay with OVCAR-8, in the assay with HT-29, with SF-295, with NCI-H226, in the assay with RPMI-8226 and in the assay on SF-539 was > 100 µM (inactive) throughout. The GI50 in the assay with SW-620, with SNB-19, in the assay on SR, in the assay on HOP-92, with CAKI-1 and in the assay on NCI-H522 was > 100 µM (inactive) throughout. The GI50 with IGROV-1, in the assay with K562, with A549, in the assay with SNB-75, in the assay on UO-31 and with CCRF-CEM was > 100 µM (inactive) in each case. Also, the GI50 in the assay with SK-OV-3 is > 100 µM (inactive).

For the molecule `O=C(/C=N/c1ccccc1S)c1ccco1`, the GI50 with OVCAR-8 is 11.5 µM (inactive); in the assay on COLO 205, 17.2 µM (inactive); in the assay on HT-29, 13.3 µM (inactive); in the assay on SF-295, 5.08 µM (inactive); in the assay on RPMI-8226 it was 14.8 µM (inactive); in the assay with SF-539, 14.1 µM (inactive). Moreover, the GI50 in the assay with SW-620 was 14.7 µM (inactive); in the assay with SNB-19, 4.74 µM (inactive); with CAKI-1, 19.6 µM (inactive); with NCI-H522, 15.5 µM (inactive); in the assay with IGROV-1, 9.33 µM (inactive); in the assay on K562, 18.2 µM (inactive). Further, the GI50 is 5.11 µM (inactive) in the assay with A549, 1.86 µM (inactive) in the assay on UO-31 and 3.14 µM (inactive) with CCRF-CEM.

For the molecule `CCOC(=O)NC(Nc1ncccn1)(C(=O)OCC)C(F)(F)F` (stereo unspecified), the GI50 with OVCAR-8, in the assay on COLO 205, in the assay on HT-29, in the assay on SF-295, with RPMI-8226 and in the assay with SF-539 was > 100 µM (inactive) throughout. The GI50 in the assay on SW-620, with SNB-19, in the assay with SR, with HOP-92, in the assay with CAKI-1 and with NCI-H522 was > 100 µM (inactive) in each case. Besides, the GI50 with IGROV-1, with K562, with A549, in the assay on SNB-75, in the assay on UO-31 and with CCRF-CEM was > 100 µM (inactive) throughout. For the same molecule, the GI50 with SK-OV-3 was > 10 µM (inactive).

Take `CCC(C(=O)O)c1ccc(OC)cc1` (stereo unspecified): the GI50 with COLO 205, with HT-29, with SF-295, in the assay on NCI-H226, in the assay on RPMI-8226 and in the assay on SF-539 was > 100 µM (inactive) throughout. For the same molecule, the GI50 in the assay on SW-620, with SNB-19, with SR, in the assay on HOP-92, in the assay with CAKI-1 and in the assay on NCI-H522 was > 100 µM (inactive) in each case. For the same molecule, the GI50 with IGROV-1, with K562, with A549, in the assay on SNB-75, with UO-31 and with CCRF-CEM was > 100 µM (inactive) in each case. For the same molecule, the GI50 in the assay on SK-OV-3 was > 100 µM (inactive).

As to `O=C=C=P(c1ccccc1)(c1ccccc1)c1ccccc1`, the GI50 in the assay with OVCAR-8 is 72.6 µM (inactive); in the assay on COLO 205, 23.7 µM (inactive); with SF-295, > 100 µM (inactive); in the assay on NCI-H226, 45.6 µM (inactive); in the assay on RPMI-8226, 27.3 µM (inactive); in the assay with SF-539, > 100 µM (inactive). For the same molecule, the GI50 with SW-620 was > 100 µM (inactive); in the assay with SNB-19, > 100 µM (inactive); with SR, 86.7 µM (inactive); in the assay with HOP-92, 16.1 µM (inactive); in the assay with CAKI-1, 59.4 µM (inactive); in the assay on IGROV-1 it was 41.9 µM (inactive). For the same molecule, the GI50 is 27 µM (inactive) with K562; 40.6 µM (inactive) with A549; 23.5 µM (inactive) with SNB-75; > 100 µM (inactive) in the assay with UO-31; 76 µM (inactive) in the assay with CCRF-CEM; 48.3 µM (inactive) in the assay with SK-OV-3.

Take `O=c1[nH]c(-c2ccc(Cl)cc2)cc2ccsc12`: the GI50 in the assay on OVCAR-8 is 8.41 µM (inactive); in the assay on COLO 205, 9.82 µM (inactive); with HT-29, 4.07 µM (inactive); with SF-295, 3.42 µM (inactive); in the assay on NCI-H226, > 100 µM (inactive); with RPMI-8226, 3.1 µM (inactive). Besides, the GI50 in the assay on SW-620 was 4.69 µM (inactive); with SNB-19, 2.49 µM (inactive); in the assay on SR, 0.506 µM (active); with HOP-92 it was 10.6 µM (inactive); with CAKI-1, 2.52 µM (inactive); in the assay on NCI-H522, 3.31 µM (inactive). In addition, the GI50 in the assay on IGROV-1 is 3.49 µM (inactive); with K562, 5.16 µM (inactive); with A549, 3.5 µM (inactive); with SNB-75, 3.66 µM (inactive); in the assay with UO-31 it was 5.94 µM (inactive); in the assay on SK-OV-3 it was 4.9 µM (inactive).

Consider `COC(=O)C1C(C)N1C` (stereo unspecified), for which the GI50 with OVCAR-8, with COLO 205, in the assay with HT-29, with NCI-H226, in the assay on RPMI-8226 and with SF-539 was > 100 µM (inactive) in each case. The GI50 with SW-620, in the assay on SNB-19, in the assay with HOP-92, in the assay with NCI-H522, in the assay with IGROV-1 and in the assay with K562 was > 100 µM (inactive) in each case. Besides, the GI50 in the assay with A549, with SNB-75, with CCRF-CEM and in the assay on SK-OV-3 was > 100 µM (inactive) in each case.

Usually GI50 stands for the concentration at which growth is held to half of that of the control.

These data come from ChEMBL document CHEMBL1201862, “PubChem BioAssay data set” (2004).
